This is an account of results in ChEMBL document CHEMBL5038591, “Identification of a Novel TAR RNA-Binding Protein 2 Modulator with Potential Therapeutic Activity against Hepatocellular Carcinoma” (J Med Chem, 2021).

Active and inactive are the calls of the source. No cut-off for these calls is given here.

By IC50 is commonly meant the concentration needed to halve the response being measured. A lower IC50 goes with greater potency in that assay.

Experiment [1] concerns SK-HEP1. Description: Inhibition of cell invasion in human SK-HEP1 cells at 30 uM incubated for 12 hrs by crystal violet staining based transwell assay. It counts as functional.
The subject of experiment [2] is SK-HEP1. The experiment in a line: Inhibition of epithelial-mesenchymal transition in human SK-HEP1 cells assessed as change in N-cadherin expression at 10 to 50 uM incubated for 24 hrs by Western blot analysis. It counts as functional, cell-based. To be noted: dose 10-50 µM. In general terms: A western blot detects proteins with antibodies after separation by electrophoresis.

In experiment [3] the test system is MHCC97. Description: Antiproliferative activity against human MHCC97 cells incubated for 24 hrs by alamar blue assay. As to conditions: MHCC97, 24 h. On the technique in general: Resazurin is reduced to fluorescent resorufin, in cell work by metabolically active cells.
Experiment [4] has as its system SK-HEP1. The experiment in a line: Inhibition of epithelial-mesenchymal transition in human SK-HEP1 cells assessed as change in vimentin expression at 10 to 50 uM incubated for 24 hrs by Western blot analysis. It counts as functional, cell-based. As to conditions: dose 10-50 µM.
The subject of experiment [5] is SK-HEP1. The experiment in a line: Inhibition of cell migration in human SK-HEP1 cells at 30 uM incubated for 12 hrs by crystal violet staining based transwell assay. It counts as functional.
The subject of experiment [6] is MHCC97. The experiment in a line: Antiproliferative activity against human MHCC97 cells at 25 uM incubated for 24 hrs by alamar blue assay. It counts as functional, cell-based.
The test system of experiment [7] is SK-HEP1. Description: Antiproliferative activity against human SK-HEP1 cells assessed as increase in miR-22-5p level at 20 uM by qRT-PCR analysis. It counts as functional, cell-based. (In general: In qPCR the cycle at which signal appears reflects the starting amount.)
Experiment [8] deals with SK-HEP1. The experiment in a line: Effect on TRBP protein expression in human SK-HEP1 cells at 30 uM after 24 hrs by immunoblot analysis. It counts as functional, cell-based.
Experiment [9] relates to SK-HEP1. Description: Antiproliferative activity against human SK-HEP1 cells assessed as increase in miR-224-5p level at 20 uM by qRT-PCR analysis. It counts as functional, cell-based.
The subject of experiment [10] is SK-HEP1. The experiment in a line: Inhibition of colony formation in human SK-HEP1 cells at 10 to 50 uM incubated for 14 days by crystal violet staining based assay. To be noted: dose 10-50 µM, time 14.0 day. It counts as functional, cell-based.
The subject of experiment [11] is SK-HEP1. Description: Induction of apoptosis in human SK-HEP1 cells at 30 uM incubated for 24 hrs by Annexin V-FITC/PI staining based flow cytometry. The format is functional, cell-based.
A further experiment relates to Mus musculus. The experiment in a line: Downregulation of TPX2 expression in mouse liver at 40 mg/kg measured after 30 days by immunohistochemical staining analysis. It counts as functional, organism-based. As to conditions: time 30.0 day.
In experiment [12] the test system is MHCC97. Description: Antitumor activity against human MHCC97 cells xenografted in SCID mouse assessed as decrease in tumor size at 40 mg/kg, ip administered once every 3 days and measured after 10 days. To be noted: time 10.0 day. It counts as functional, organism-based.
In experiment [13] the test system is SK-HEP1. The experiment in a line: Antiproliferative activity against human SK-HEP1 cells incubated for 24 hrs by alamar blue assay. It counts as functional, cell-based. As to conditions: SK-HEP1, 24 h.
In experiment [14] the test system is SK-HEP1. The experiment in a line: Inhibition of MEK phosphorylation in human SK-HEP1 cells at 30 uM by Western blot analysis. It counts as cell-based.

As for `COc1cc2c(c(O)c1OC)-c1c(cc3c(c1OC)OCO3)C[C@H](C)[C@H](C)C2`, the inhibition entry with SK-HEP1 [1], in the experiment on SK-HEP1 [5], with SK-HEP1 [10] and in the experiment on SK-HEP1 [14] was “Active” in each case. Moreover, the inhibition result with SK-HEP1 [2] and in the experiment on SK-HEP1 [4] was “inactive” each time. The IC50 in the experiment with MHCC97 [3] was 24.8 µM; with SK-HEP1 [13], 20.6 µM. For the same compound, the result in the experiment with MHCC97 [6], with Mus musculus and with MHCC97 [12] was Active. Further, the outcome in the experiment on SK-HEP1 [7], in the experiment on SK-HEP1 [8], in the experiment with SK-HEP1 [9] and with SK-HEP1 [11] was inactive.
